This note sets out measurements from patent US12486267B2, “Imidazo[1,2-A]pyridine and [1,2,4]triazolo[1,5-A]pyridine derivatives as TLR9 inhibitors for the treatment of fibrosis” (BRISTOL-MYERS SQUIBB COMPANY, priority 2020, dated 2025).

Each structure is given as a SMILES string. Bounds are passed on as bounds.

What all share (type): cell-based
For one assay, the target named is T1, human TLR9 (Homo sapiens, UniProt Q9NR96).
T1 sequence (Q9NR96 26-1032): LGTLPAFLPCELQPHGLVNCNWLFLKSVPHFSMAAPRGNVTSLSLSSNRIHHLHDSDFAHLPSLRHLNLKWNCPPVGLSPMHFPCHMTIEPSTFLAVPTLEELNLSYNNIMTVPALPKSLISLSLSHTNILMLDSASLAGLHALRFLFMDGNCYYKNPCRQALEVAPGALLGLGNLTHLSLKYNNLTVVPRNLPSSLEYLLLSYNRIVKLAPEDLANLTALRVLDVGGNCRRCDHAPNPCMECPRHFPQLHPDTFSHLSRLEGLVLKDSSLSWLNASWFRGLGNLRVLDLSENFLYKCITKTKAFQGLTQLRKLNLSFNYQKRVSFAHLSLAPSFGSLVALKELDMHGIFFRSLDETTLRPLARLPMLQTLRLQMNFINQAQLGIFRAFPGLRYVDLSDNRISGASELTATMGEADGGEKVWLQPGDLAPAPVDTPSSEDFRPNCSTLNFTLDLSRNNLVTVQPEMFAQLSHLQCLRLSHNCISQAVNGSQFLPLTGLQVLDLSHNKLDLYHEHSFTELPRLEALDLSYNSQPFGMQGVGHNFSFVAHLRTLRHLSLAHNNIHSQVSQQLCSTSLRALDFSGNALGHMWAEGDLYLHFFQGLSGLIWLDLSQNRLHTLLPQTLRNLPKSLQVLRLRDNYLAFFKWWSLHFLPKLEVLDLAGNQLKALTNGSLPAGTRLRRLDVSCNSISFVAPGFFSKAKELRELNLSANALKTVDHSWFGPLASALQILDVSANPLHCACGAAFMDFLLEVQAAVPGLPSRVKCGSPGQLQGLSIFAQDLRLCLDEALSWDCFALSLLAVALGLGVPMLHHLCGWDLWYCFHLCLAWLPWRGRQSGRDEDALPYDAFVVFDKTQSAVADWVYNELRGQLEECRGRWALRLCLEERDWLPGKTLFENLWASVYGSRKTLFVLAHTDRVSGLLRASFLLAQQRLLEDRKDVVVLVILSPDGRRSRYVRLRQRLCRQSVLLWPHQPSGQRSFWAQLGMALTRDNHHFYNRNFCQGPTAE
Nature of the assay: TLR9 inhibition reporter assay (HEK-Blue cells, SEAP reporter). To be noted: HEK-Blue cells overexpressing human TLR9; stimulated with ODN2006 5 nM; 22 hour incubation; SEAP readout. In short, it runs like this: (§1)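 HEK-Blue cells with an NF-κB/AP-1-driven SEAP reporter were pre-treated 30 min at room temperature with compound (0.05 nM–50 μM), then stimulated with gardiquimod 7.5 μM (TLR7), R848 15.9 μM (TLR8) or ODN2006 5 nM (TLR9). After 22 h at 37 °C, SEAP was read; % inhibition was referenced to agonist+DMSO and known-inhibitor wells.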
A general note: Reporter assays use an easily measured gene product as a stand-in for the process of interest.

For the next assay, the target named is T2, human TLR7 (Homo sapiens, UniProt Q9NYK1).
T2 sequence (Q9NYK1 27-1049): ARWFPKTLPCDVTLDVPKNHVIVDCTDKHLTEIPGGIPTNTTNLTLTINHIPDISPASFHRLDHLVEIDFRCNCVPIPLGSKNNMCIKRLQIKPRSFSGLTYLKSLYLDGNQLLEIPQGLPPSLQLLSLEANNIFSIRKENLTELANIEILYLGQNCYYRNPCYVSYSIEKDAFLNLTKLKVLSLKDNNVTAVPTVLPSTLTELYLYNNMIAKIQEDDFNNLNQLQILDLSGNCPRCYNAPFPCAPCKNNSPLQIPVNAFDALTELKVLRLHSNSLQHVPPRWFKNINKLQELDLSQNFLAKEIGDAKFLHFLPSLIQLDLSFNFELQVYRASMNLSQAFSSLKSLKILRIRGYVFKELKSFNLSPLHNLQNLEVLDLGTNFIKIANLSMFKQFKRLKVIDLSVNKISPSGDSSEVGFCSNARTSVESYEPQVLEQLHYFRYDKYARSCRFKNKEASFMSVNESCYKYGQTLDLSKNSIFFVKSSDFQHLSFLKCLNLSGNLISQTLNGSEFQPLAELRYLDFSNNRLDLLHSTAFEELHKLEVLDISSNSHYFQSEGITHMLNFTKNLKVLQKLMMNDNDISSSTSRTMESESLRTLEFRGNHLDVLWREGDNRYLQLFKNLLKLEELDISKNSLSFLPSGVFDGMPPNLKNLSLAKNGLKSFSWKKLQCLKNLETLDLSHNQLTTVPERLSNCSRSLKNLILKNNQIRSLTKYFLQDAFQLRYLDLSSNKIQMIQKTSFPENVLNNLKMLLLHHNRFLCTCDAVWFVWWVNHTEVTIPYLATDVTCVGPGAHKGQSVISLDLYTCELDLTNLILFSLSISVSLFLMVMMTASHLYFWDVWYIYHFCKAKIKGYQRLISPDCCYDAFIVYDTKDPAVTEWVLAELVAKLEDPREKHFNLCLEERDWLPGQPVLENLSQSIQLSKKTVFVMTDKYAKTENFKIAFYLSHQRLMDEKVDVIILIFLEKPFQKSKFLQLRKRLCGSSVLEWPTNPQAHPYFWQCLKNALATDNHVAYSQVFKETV
As to the kind of experiment: TLR7 inhibition reporter assay (HEK-Blue cells, SEAP reporter). Particulars: HEK-Blue cells overexpressing human TLR7; stimulated with gardiquimod 7.5 μM; 22 hour incubation; SEAP readout. In short, it runs like this:
as §1

In the next assay the target is T3, human TLR8 (Homo sapiens, UniProt Q9NR97).
T3 sequence (Q9NR97 27-1041): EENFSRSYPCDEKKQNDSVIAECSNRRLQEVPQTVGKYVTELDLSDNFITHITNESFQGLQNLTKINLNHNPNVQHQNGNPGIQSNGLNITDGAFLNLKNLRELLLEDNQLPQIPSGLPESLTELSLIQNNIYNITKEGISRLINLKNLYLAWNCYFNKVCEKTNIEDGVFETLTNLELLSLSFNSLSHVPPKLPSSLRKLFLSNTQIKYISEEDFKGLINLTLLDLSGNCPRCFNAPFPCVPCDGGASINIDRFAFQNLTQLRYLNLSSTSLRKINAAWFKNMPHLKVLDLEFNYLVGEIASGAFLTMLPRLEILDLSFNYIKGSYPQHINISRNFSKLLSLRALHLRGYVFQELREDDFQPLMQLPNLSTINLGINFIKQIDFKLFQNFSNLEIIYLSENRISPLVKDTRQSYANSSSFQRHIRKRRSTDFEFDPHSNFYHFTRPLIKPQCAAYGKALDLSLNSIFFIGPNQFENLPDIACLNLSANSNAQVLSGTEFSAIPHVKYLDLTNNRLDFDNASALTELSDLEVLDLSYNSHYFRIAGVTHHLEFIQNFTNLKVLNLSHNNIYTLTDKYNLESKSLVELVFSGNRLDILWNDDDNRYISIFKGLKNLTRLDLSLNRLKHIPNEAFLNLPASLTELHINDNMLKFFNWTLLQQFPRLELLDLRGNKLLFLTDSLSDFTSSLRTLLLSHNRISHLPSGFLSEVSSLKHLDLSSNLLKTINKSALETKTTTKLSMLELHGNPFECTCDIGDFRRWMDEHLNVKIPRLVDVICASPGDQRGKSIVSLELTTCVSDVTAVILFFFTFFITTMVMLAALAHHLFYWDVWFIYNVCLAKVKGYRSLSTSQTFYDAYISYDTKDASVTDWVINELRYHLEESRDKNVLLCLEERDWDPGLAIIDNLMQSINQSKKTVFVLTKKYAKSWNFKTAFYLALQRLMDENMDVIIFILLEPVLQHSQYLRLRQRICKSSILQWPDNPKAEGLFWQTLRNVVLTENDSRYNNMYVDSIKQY
As to the kind of experiment: TLR8 inhibition reporter assay (HEK-Blue cells, SEAP reporter). Particulars: HEK-Blue cells overexpressing human TLR8; stimulated with R848 15.9 μM; 22 hour incubation; SEAP readout. In short, it runs like this:
as §1

By IC50 is commonly meant the concentration needed to halve the response being measured. For the molecule `COc1ccc(-c2cn3cc(C4CCN(C5CC6CCC(C5)N6CC5CC5)CC4)cc(C)c3n2)cc1OC` (single isomer, unassigned) [Example 21, 6-(1-(8-(cyclopropylmethyl)-8-azabicyclo[3.2.1]octan-3-yl)piperidin-4-yl)-2-(3,4-dimethoxyphenyl)-8-methylimidazo[1,2-a]pyridine], the IC50 at human TLR9 was 0.126 µM; on human TLR7, 3 µM; on human TLR8 it was over 50 µM.

On to `COc1ccc(-c2cn3c(n2)CCC(C2CCN(C4CC5(C4)CN(CC4CC4)C5)CC2)C3)cc1OC` (racemic) [Example 51, 6-(1-(2-(cyclopropylmethyl)-2-azaspiro[3.3]heptan-6-yl)piperidin-4-yl)-2-(3,4-dimethoxyphenyl)-5,6,7,8-tetrahydroimidazo[1,2-a]pyridine], for which the IC50 at human TLR9 was 0.068 µM; on human TLR7, over 50 µM; on human TLR8, over 50 µM.

For `COc1ccc(-c2cn3cc(C4CCN(C5CC6CCC(C5)N6CC(C)C)CC4)cc(C)c3n2)cc1OC` (single isomer, unassigned) [Example 18, 2-(3,4-dimethoxyphenyl)-6-(1-(8-isobutyl-8-azabicyclo[3.2.1]octan-3-yl)piperidin-4-yl)-8-methylimidazo[1,2-a]pyridine], the 50% inhibitory concentration (IC50) is 0.048 µM on human TLR9, 3.3 µM against human TLR7 and over 50 µM against human TLR8.

For `COc1ccc(-c2cn3c(n2)CCC(C2CCN(C4CCN(C(C)C)CC4)CC2)C3)cc1OC` (single isomer, unassigned) [Example 36, 2-(3,4-dimethoxyphenyl)-6-(1′-isopropyl-[1,4′-bipiperidin]-4-yl)-5,6,7,8-tetrahydroimidazo[1,2-a]pyridine], the IC50 was 0.057 µM at human TLR9, 7.8 µM against human TLR7 and over 50 µM on human TLR8.

`COc1ccc(-c2cn3cc(C4CCN(C5CCN(C6CC6)CC5)CC4)cc(C)c3n2)cc1OC` [Example 1, 6-(1′-cyclopropyl-[1,4′-bipiperidin]-4-yl)-2-(3,4-dimethoxyphenyl)-8-methylimidazo [1,2-a]pyridine]: the values for the IC50 at human TLR9, on human TLR7 and against human TLR8 were 0.056 µM, 14 µM and over 50 µM, respectively.

In the case of `COc1ccc(-c2cn3c(n2)CCC(C2CCN(C4CCN(CC5CC5)CC4)CC2)C3)cc1OC` (single isomer, unassigned) [Example 57, 6-(1′-(cyclopropylmethyl)-[1,4′-bipiperidin]-4-yl)-2-(3,4-dimethoxyphenyl)-5,6,7,8-tetrahydroimidazo[1,2-a]pyridine], the figures for the IC50 at human TLR9, on human TLR7 and against human TLR8 were 0.036 µM, 4.2 µM and over 50 µM, respectively.

As to `Cc1cc(-c2ccc(N3CCN(C4COC4)CC3)cc2)cn2cc(-c3ccc(S(C)(=O)=O)cc3)nc12` [Example 103, 8-methyl-2-(4-(methylsulfonyl)phenyl)-6-(4-(4-(oxetan-3-yl)piperazin-1-yl)phenyl)imidazo[1,2-a]pyridine], the IC50 against human TLR9 is 9.2 µM; against human TLR7, 38.5 µM; on human TLR8 it was over 50 µM.

As for `COc1ccc(-c2cn3cc(-c4ccc(N5CCN(CC(C)C)CC5)cc4)cc(C)c3n2)cc1OC` [Example 94, 2-(3,4-dimethoxyphenyl)-6-(4-(4-isobutylpiperazin-1-yl)phenyl)-8-methylimidazo[1,2-a]pyridine], the IC50 against human TLR9 is 0.22 µM; against human TLR7, over 50 µM; against human TLR8, over 50 µM.

Regarding `COc1ccc(-c2cn3c(n2)CCC(C2CCN(C4CCN(CC(C)C)CC4)CC2)C3)cc1OC` (racemic) [Example 31, 2-(3,4-dimethoxyphenyl)-6-(1′-isobutyl-[1,4′-bipiperidin]-4-yl)-5,6,7,8-tetrahydroimidazo[1,2-a]pyridine], the IC50 was 0.026 µM against human TLR9, 4.6 µM against human TLR7 and over 50 µM at human TLR8.

Regarding `CC(C)N1CCCC(N2CCC(c3cc(F)c4nc(-c5ccc(S(C)(=O)=O)cc5)cn4c3)CC2)CC1` (single isomer, unassigned) [Example 71, 8-fluoro-6-(1-(1-isopropylazepan-4-yl)piperidin-4-yl)-2-(4-(methylsulfonyl)phenyl)imidazo[1,2-a]pyridine], the IC50 on human TLR9 was 0.039 µM; at human TLR7, 3 µM; on human TLR8, over 50 µM.

Take `COc1ccc(-c2cn3cc(C4CCN(C5CCN(CC(C)C)CC5)CC4)cc(C)c3n2)cc1OC` [Example 3, 2-(3,4-dimethoxyphenyl)-6-(1′-isobutyl-[1,4′-bipiperidin]-4-yl)-8-methylimidazo[1,2-a]pyridine]: the values for the IC50 against human TLR9, against human TLR7 and at human TLR8 were 0.032 µM, 1.8 µM and over 50 µM, respectively.

In the case of `COc1ccc(-c2cn3cc(C4CCN(C5CCN(CC(C)C)CC5)CC4)cc(C)c3n2)cc1F` [Example 6, 2-(3-fluoro-4-methoxyphenyl)-6-(1′-isobutyl-[1,4′-bipiperidin]-4-yl)-8-methylimidazo[1,2-a]pyridine], the IC50 is 0.252 µM against human TLR9, 16 µM on human TLR7 and over 50 µM against human TLR8.
